Measurements published in patent US8551524B2, “Anti-diabetic combinations” (priority 2007, dated 2013).

Settings: human, in vivo
Source text: a. […] Laboratory results were then reviewed for these particular patients to determine which patients actually had clinically important changes in a given laboratory parameter.

CN(C)C(=N)N=C(N)N [metformin]
patients with adverse events: 10%

N[C@@H](CC(=O)N1CCn2c(nnc2C(F)(F)F)C1)Cc1cc(F)c(F)cc1F [sitagliptin]
clinically important decreases in any hematological parameter directly attributable to the drug: No patient experienced clinically important decreases | patients with adverse events: 8% | responsibility for clinically meaningful elevations in ALT and AST: not responsible for the variations
